Laboratory results taken from patent US20070189984A1, “Agents for use on skin and/or hair containing quadruply substituted cyclohexene compounds” (BEIERSDORF AF,, priority 2003, published 2007).

Test system: primary normal human melanocytes
Assay: melanogenesis assay (C14-tyrosine incorporation)
Assay type: cell-based
Conditions: incubation for 3 days, average, n=3
Method: By way of example, the test for the compound 6-methyl-8-(2,6,6-trimethylcyclohex-1-en-1-yl)octa-3,5-dien-2-one is given.
A melanogenesis assay was carried out after incubation for 3 days of primary normal human melanocytes with test substance compared to control. The numbers given in the table indicate the melanogenesis rates based on the untreated control (=100%) (measured as C14-tyrosine incorporation).

## CC(=O)/C=C/C=C(\C)CCC1=C(C)CCCC1(C)C [(3E,5E)-6-methyl-8-(2,6,6-trimethylcyclohex-1-en-1-yl)octa-3,5-dien-2-one]
0.1 μg/ml test substance
  melanogenesis rate based on the untreated control (=100%), measured as C14-tyrosine incorporation: 127%
1 μg/ml test substance
  melanogenesis rate based on the untreated control (=100%), measured as C14-tyrosine incorporation: 157%
